Reference: the NIST ThermoML archive (doi:10.1021/je200721d)

Experiment: xn = mol fraction of the nth substance listed
Settings: Liquid, Vibrating tube method

CCCCCCCCCC [decane] + CCCCCC
Settings	mass density [kg/m3]
323.14 K, 13000 kPa, x2 = 0.2185	707.88
323.14 K, 13000 kPa, x2 = 0.4968	691.97
323.14 K, 14000 kPa, x2 = 0.0456	717.02
323.14 K, 14000 kPa, x2 = 0.2185	708.71
323.14 K, 14000 kPa, x2 = 0.4968	692.85
323.14 K, 15000 kPa, x2 = 0.0456	717.82
323.14 K, 15000 kPa, x2 = 0.2185	709.54
323.14 K, 15000 kPa, x2 = 0.4968	693.71
323.14 K, 16000 kPa, x2 = 0.0456	718.6
323.14 K, 16000 kPa, x2 = 0.2185	710.33
323.14 K, 16000 kPa, x2 = 0.4968	694.57
323.14 K, 17000 kPa, x2 = 0.0456	719.38
323.14 K, 17000 kPa, x2 = 0.2185	711.14
323.14 K, 17000 kPa, x2 = 0.4968	695.4
323.14 K, 18000 kPa, x2 = 0.0456	720.14
323.14 K, 18000 kPa, x2 = 0.2185	711.93
323.14 K, 18000 kPa, x2 = 0.4968	696.25
323.14 K, 19000 kPa, x2 = 0.0456	720.9
323.14 K, 19000 kPa, x2 = 0.2185	712.7
323.14 K, 19000 kPa, x2 = 0.4968	697.05
323.14 K, 20000 kPa, x2 = 0.0456	721.64
323.14 K, 20000 kPa, x2 = 0.2185	713.47
323.14 K, 20000 kPa, x2 = 0.4968	697.87
323.14 K, 21000 kPa, x2 = 0.0456	722.37
323.14 K, 21000 kPa, x2 = 0.2185	714.23
323.14 K, 21000 kPa, x2 = 0.4968	698.66
323.14 K, 22000 kPa, x2 = 0.0456	723.1
323.14 K, 22000 kPa, x2 = 0.2185	714.97
323.14 K, 22000 kPa, x2 = 0.4968	699.42
323.14 K, 23000 kPa, x2 = 0.0456	723.81
323.14 K, 23000 kPa, x2 = 0.2185	715.7
323.14 K, 23000 kPa, x2 = 0.4968	700.17
323.14 K, 24000 kPa, x2 = 0.0456	724.52
323.14 K, 24000 kPa, x2 = 0.2185	716.43
323.14 K, 24000 kPa, x2 = 0.4968	700.91
323.14 K, 25000 kPa, x2 = 0.0456	725.21
323.14 K, 25000 kPa, x2 = 0.2185	717.13
323.14 K, 25000 kPa, x2 = 0.4968	701.65
323.16 K, 1000 kPa, x2 = 0.7524	659.51
323.16 K, 2000 kPa, x2 = 0.7524	660.73
323.16 K, 3000 kPa, x2 = 0.7524	661.92
323.16 K, 4000 kPa, x2 = 0.7524	663.04
323.16 K, 5000 kPa, x2 = 0.7524	664.17
323.16 K, 6000 kPa, x2 = 0.7524	665.29
323.16 K, 7000 kPa, x2 = 0.7524	666.38
323.16 K, 8000 kPa, x2 = 0.7524	667.43
323.16 K, 9000 kPa, x2 = 0.7524	668.5
323.16 K, 10000 kPa, x2 = 0.7524	669.53
323.16 K, 10990 kPa, x2 = 0.7524	670.57
323.16 K, 12000 kPa, x2 = 0.7524	671.56
323.16 K, 13000 kPa, x2 = 0.7524	672.52
323.16 K, 14000 kPa, x2 = 0.7524	673.49
323.16 K, 15000 kPa, x2 = 0.7524	674.44
323.16 K, 16000 kPa, x2 = 0.7524	675.39
323.16 K, 17000 kPa, x2 = 0.7524	676.32
323.16 K, 18000 kPa, x2 = 0.7524	677.22
323.16 K, 19000 kPa, x2 = 0.7524	678.11
323.16 K, 20000 kPa, x2 = 0.7524	678.99
323.16 K, 21000 kPa, x2 = 0.7524	679.85
323.16 K, 22000 kPa, x2 = 0.7524	680.67
323.16 K, 23000 kPa, x2 = 0.7524	681.51
323.16 K, 24000 kPa, x2 = 0.7524	682.33
323.16 K, 25000 kPa, x2 = 0.7524	683.11
332.58 K, 1000 kPa, x2 = 0.4968	671.98
332.58 K, 2000 kPa, x2 = 0.4968	673.11
332.58 K, 3000 kPa, x2 = 0.4968	674.24
332.58 K, 4000 kPa, x2 = 0.4968	675.37
332.58 K, 5000 kPa, x2 = 0.4968	676.46
332.58 K, 6000 kPa, x2 = 0.4968	677.53
332.58 K, 7000 kPa, x2 = 0.4968	678.61
332.58 K, 8000 kPa, x2 = 0.4968	679.66
332.58 K, 9000 kPa, x2 = 0.4968	680.68
332.58 K, 10000 kPa, x2 = 0.4968	681.7
332.58 K, 10990 kPa, x2 = 0.4968	682.69
332.58 K, 12000 kPa, x2 = 0.4968	683.66
332.58 K, 13000 kPa, x2 = 0.4968	684.64
332.58 K, 14000 kPa, x2 = 0.4968	685.59
332.58 K, 15000 kPa, x2 = 0.4968	686.54
332.58 K, 16000 kPa, x2 = 0.4968	687.44
332.58 K, 17000 kPa, x2 = 0.4968	688.35
332.58 K, 18000 kPa, x2 = 0.4968	689.24
332.58 K, 19000 kPa, x2 = 0.4968	690.12
332.58 K, 20000 kPa, x2 = 0.4968	690.99
332.58 K, 21000 kPa, x2 = 0.4968	691.85
332.58 K, 22000 kPa, x2 = 0.4968	692.69
332.58 K, 23000 kPa, x2 = 0.4968	693.52
332.58 K, 24000 kPa, x2 = 0.4968	694.34
332.58 K, 25000 kPa, x2 = 0.4968	695.13
332.93 K, 1000 kPa, x2 = 0.8991	636.12
332.93 K, 2000 kPa, x2 = 0.8991	637.35
332.93 K, 3000 kPa, x2 = 0.8991	638.61
332.93 K, 4000 kPa, x2 = 0.8991	639.84
332.93 K, 5000 kPa, x2 = 0.8991	641.09
332.93 K, 6000 kPa, x2 = 0.8991	642.3
